Test results as given in ChEMBL document CHEMBL1201862, “PubChem BioAssay data set” (2004).
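96-well plates; 48 h exposure; 5 concentrations. Endpoints by linear interpolation between flanking doses. Not reached: highest tested concentration assigned. At the GI50, growth is halved.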 Calls of active or inactive are those of the source. Cut-off read from the data, not from the text of the source: active = GI50 up to about 1.1 µM and inactive = higher.

Legend:
Experiment in all cases: DTP human tumour cell line panel, 48 h
RPMI-8226 = system: RPMI-8226
K562 = system: K562
KM12 = system: KM12
HCT-15 = system: HCT-15
SW-620 = system: SW-620
HL-60 = system: HL-60
PC-3 = system: PC-3
NCI-H226 = system: NCI-H226
SF-268 = system: SF-268
COLO 205 = system: COLO 205
UACC-62 = system: UACC-62
M14 = system: M14
SN12C = system: SN12C
DU-145 = system: DU-145
MDA-MB-435 = system: MDA-MB-435
MCF7 = system: MCF7
CAKI-1 = system: CAKI-1
SK-MEL-2 = system: SK-MEL-2
HCC 2998 = system: HCC 2998
OVCAR-3 = system: OVCAR-3

O=[N+]([O-])c1cccc(-c2ncc3c(n2)-c2ccccc2C3)c1
GI50 (RPMI-8226): > 100 µM (inactive) | GI50 (K562): > 100 µM (inactive) | GI50 (KM12): > 100 µM (inactive) | GI50 (HCT-15): > 100 µM | GI50 (SW-620): > 100 µM (inactive) | GI50 (HL-60): > 100 µM (inactive) | GI50 (PC-3): > 100 µM (inactive) | GI50 (NCI-H226): > 100 µM (inactive) | GI50 (SF-268): 51.6 µM (inactive) | GI50 (COLO 205): > 100 µM (inactive) | GI50 (UACC-62): > 100 µM (inactive) | GI50 (M14): > 100 µM (inactive) | GI50 (SN12C): > 100 µM (inactive) | GI50 (DU-145): > 100 µM (inactive) | GI50 (MDA-MB-435): > 100 µM (inactive) | GI50 (MCF7): > 100 µM (inactive) | GI50 (CAKI-1): 42.7 µM (inactive) | GI50 (SK-MEL-2): > 100 µM (inactive)

CC(=O)O[C@H]1C(=O)[C@@]2(C)[C@H]([C@H](OC(=O)c3cccc(C(F)(F)F)c3)[C@]3(O)C[C@H](OC(=O)[C@H](O)[C@@H](NC(=O)c4ccccc4)c4ccccc4)C(C)=C1C3(C)C)[C@]1(OC(C)=O)CO[C@@H]1C[C@@H]2O
GI50 (RPMI-8226): < 0.0025 µM (active) | GI50 (K562): < 0.0025 µM (active) | GI50 (KM12): < 0.0025 µM (active) | GI50 (HCT-15): 0.268 µM | GI50 (SW-620): < 0.0025 µM (active) | GI50 (HL-60): < 0.0025 µM (active) | GI50 (PC-3): < 0.0025 µM (active) | GI50 (NCI-H226): 0.00946 µM (active) | GI50 (SF-268): 0.223 µM (active) | GI50 (COLO 205): < 0.0025 µM (active) | GI50 (UACC-62): 0.00526 µM (active) | GI50 (M14): 0.00306 µM (active) | GI50 (HCC 2998): 0.0111 µM (active) | GI50 (SN12C): 0.00603 µM (active) | GI50 (DU-145): 0.00857 µM (active) | GI50 (OVCAR-3): < 0.0025 µM (active) | GI50 (MDA-MB-435): < 0.0025 µM (active) | GI50 (MCF7): < 0.0025 µM (active) | GI50 (CAKI-1): 0.906 µM (active)

CC(C)(C)C1CCC2c3c([nH]c4ccccc34)C3C(=O)N(c4cc(Cl)ccc4Cl)C(=O)C3C2C1 (stereo unspecified)
GI50 (RPMI-8226): > 100 µM (inactive) | GI50 (K562): > 100 µM (inactive) | GI50 (HCT-15): > 100 µM | GI50 (SW-620): 5.85 µM (inactive) | GI50 (HL-60): > 10 µM (inactive) | GI50 (PC-3): > 100 µM (inactive) | GI50 (NCI-H226): > 100 µM (inactive) | GI50 (COLO 205): > 100 µM (inactive) | GI50 (UACC-62): > 100 µM (inactive) | GI50 (M14): > 100 µM (inactive) | GI50 (HCC 2998): > 100 µM (inactive) | GI50 (SN12C): > 100 µM (inactive) | GI50 (DU-145): > 100 µM (inactive) | GI50 (OVCAR-3): > 100 µM (inactive) | GI50 (MDA-MB-435): > 100 µM (inactive) | GI50 (MCF7): > 100 µM (inactive) | GI50 (CAKI-1): > 100 µM (inactive) | GI50 (SK-MEL-2): > 100 µM (inactive)

Cc1ccc(C)n1-n1c(-c2ccccc2)n[nH]c1=O
GI50 (RPMI-8226): > 100 µM (inactive) | GI50 (K562): 53.7 µM (inactive) | GI50 (KM12): 34.3 µM (inactive) | GI50 (HCT-15): > 100 µM | GI50 (SW-620): > 100 µM (inactive) | GI50 (PC-3): > 100 µM (inactive) | GI50 (NCI-H226): > 100 µM (inactive) | GI50 (SF-268): > 100 µM (inactive) | GI50 (COLO 205): > 100 µM (inactive) | GI50 (UACC-62): > 100 µM (inactive) | GI50 (M14): > 100 µM (inactive) | GI50 (HCC 2998): 87.7 µM (inactive) | GI50 (SN12C): > 100 µM (inactive) | GI50 (DU-145): > 100 µM (inactive) | GI50 (OVCAR-3): > 100 µM (inactive) | GI50 (MDA-MB-435): 21.2 µM (inactive) | GI50 (MCF7): > 100 µM (inactive) | GI50 (CAKI-1): > 100 µM (inactive) | GI50 (SK-MEL-2): > 100 µM (inactive)

COC(=O)CC1c2ccccc2N2C(=O)Cc3c([nH]c4ccccc34)C12 (stereo unspecified)
GI50 (RPMI-8226): > 100 µM (inactive) | GI50 (K562): 35.8 µM (inactive) | GI50 (KM12): > 100 µM (inactive) | GI50 (HCT-15): > 100 µM | GI50 (SW-620): > 100 µM (inactive) | GI50 (PC-3): > 100 µM (inactive) | GI50 (NCI-H226): > 100 µM (inactive) | GI50 (SF-268): > 100 µM (inactive) | GI50 (COLO 205): > 100 µM (inactive) | GI50 (UACC-62): > 100 µM (inactive) | GI50 (M14): > 100 µM (inactive) | GI50 (HCC 2998): > 100 µM (inactive) | GI50 (SN12C): > 100 µM (inactive) | GI50 (DU-145): > 100 µM (inactive) | GI50 (OVCAR-3): > 100 µM (inactive) | GI50 (MDA-MB-435): > 100 µM (inactive) | GI50 (MCF7): 34.8 µM (inactive) | GI50 (CAKI-1): > 100 µM (inactive) | GI50 (SK-MEL-2): > 100 µM (inactive)

C=C/C(C)=C\CC1[C@](C)(O)CC[C@H]2C(C)(C)C(=O)CC[C@]12C (stereo partly specified)
GI50 (RPMI-8226): 29 µM (inactive) | GI50 (K562): 57.7 µM (inactive) | GI50 (KM12): 85.5 µM (inactive) | GI50 (HCT-15): 51.9 µM | GI50 (SW-620): > 100 µM (inactive) | GI50 (HL-60): 12.1 µM (inactive) | GI50 (PC-3): 34.6 µM (inactive) | GI50 (NCI-H226): > 100 µM (inactive) | GI50 (SF-268): > 100 µM (inactive) | GI50 (COLO 205): 92.3 µM (inactive) | GI50 (UACC-62): > 100 µM (inactive) | GI50 (M14): 39.4 µM (inactive) | GI50 (SN12C): > 100 µM (inactive) | GI50 (DU-145): > 100 µM (inactive) | GI50 (OVCAR-3): 41.7 µM (inactive) | GI50 (MDA-MB-435): 70.5 µM (inactive) | GI50 (MCF7): 60.4 µM (inactive) | GI50 (CAKI-1): > 100 µM (inactive) | GI50 (SK-MEL-2): > 100 µM (inactive)

O=C(NC12CC3CC(CC(C3)C1)C2)n1cnc2cncnc21
GI50 (RPMI-8226): 22.5 µM (inactive) | GI50 (K562): 35.1 µM (inactive) | GI50 (KM12): 30.8 µM (inactive) | GI50 (HCT-15): 27.7 µM | GI50 (SW-620): 39.8 µM (inactive) | GI50 (HL-60): 28.7 µM (inactive) | GI50 (PC-3): 25.8 µM (inactive) | GI50 (SF-268): 53.5 µM (inactive) | GI50 (COLO 205): 20.6 µM (inactive) | GI50 (UACC-62): 39.2 µM (inactive) | GI50 (M14): 54.7 µM (inactive) | GI50 (HCC 2998): 35.6 µM (inactive) | GI50 (SN12C): 36 µM (inactive) | GI50 (DU-145): 25.6 µM (inactive) | GI50 (OVCAR-3): 18.2 µM (inactive) | GI50 (MDA-MB-435): 31.3 µM (inactive) | GI50 (MCF7): 27.5 µM (inactive) | GI50 (CAKI-1): 28.4 µM (inactive) | GI50 (SK-MEL-2): 18.2 µM (inactive)
